# System: anti-EBV antibodies
# Test: ELISA with EBV control peptide, comparing antibody titers against HHV-8 and EBV
# Type: binding, human
# Procedure: Various control panels as well as control peptides were used to test the specificity of the HHV-8 antibody ELISA. Using an EBV control peptide (cf. table 2), analyses were carried out to compare antibody titers against HHV-8 and EBV (a closely related herpesvirus). In 56 out of 64 cases the observed antibody titers were at least 30% divergent; the EBV seroprevalence was 86% with HIV-positive patients and 72% with the controls.
substance,measurement,setting,value
"S G S G Q E P P A P Q A P I (SGSGQEPPAPQAPI; Epstein-Barr virus) [EBV control peptide, control peptide, Epstein-Barr virus strain B95-8, EBNA 6, position 100695-100724, with SGSG spacer]",EBV seroprevalence,HIV-positive patients,86%
same,EBV seroprevalence,controls,72%

# Reference: patent US6669939B1, “(Poly)peptides which represent the epitopes of the human herpes virus type 8” (Biotrin International Properties Limited, priority 1998, dated 2003)
